Laboratory results from patent publication US4288609A, “Quaternary ammonium derivatives of adamantane with antimicrobic activity” (priority 1976, dated 1981).
“And” between values parts separate entries of the source, which are not always exact repeats. Identical values can stand only once. Like-named read-outs stand apart in the source and are kept apart here.

Columns and labels:
Pseudom.Aer. ATCC 1014 = test: M.I.C. in vitro, gram- Pseudom. Aer. (Table 1); type: cell-based, Pseudomonas Aeruginosa
Procedure: (§1) The method for evaluating the activity in vitro against bacteria, fungi and protozoa consists in introducing calculated quantities of the substance, the activity of which it is desired to test, into culture media already inoculated with a predetermined number of test germs.
(§2) After 24 or 48 hours of incubation at 30° or 37° C., according to the micro-organism being tested, it is possible to evaluate the growth of the same in the culture broth; in this manner the minimum concentration (M.I.C.) which inhibits the growth of the micro-organisms in vitro is determined.
(§3) In table 1 there are recorded the M.I.C. values in γ/ml of the products subject of the present invention, against certain gram+ and gram- bacterial strains, some of which are pathogenic towards human beings.

[1] = tested on: gram+ and gram- bacterial strains; test: Activity in vitro on gram+ and gram- bacteria, overall; type: cell-based; details: gram positive and gram negative strains, low concentrations
Procedure: as §1, §2, §3

Klens. Pneum. ISM = test: M.I.C. in vitro, gram- Klens. Pneum. (Table 1); type: cell-based
Procedure: as §1, §2, §3

[2] = tested on: Nicrosporum Canis ATCC 11621; test: MIC mildews, Microsporum canis (Table 2); type: cell-based; details: Sabourand broth
Procedure: as §1, §2
Inoculation with Trichophyton mentagrophytes and Microsporum canis was effected in a ratio of 1% of the volume of medium used.
(§4) For the fungi Sabourand broth was used as a culture medium, whilst for the protozoa Kupferberg Trichomonas broth with 5% of horse serum was used.

[3] = tested on: Streptococ. Henclyt. 0203; test: M.I.C. in vitro, gram+ Streptococ. Henclyt. (Table 1); type: cell-based
Procedure: as §1, §2, §3

Staph.Aureus Tour = test: M.I.C. in vitro, gram+ Staph. Aureus (Table 1); type: cell-based, Staphylococcus Aureus
Procedure: as §1, §2, §3

Trich. Foetus ISM 66/23 = test: MIC protozoa, Trichomonas foetus (Table 2); type: cell-based; details: +10% serum (head); Kupferberg Trichomonas broth with 5% of horse serum
Procedure: as §1, §2
Inoculation with Trichomonas vaginalis and Trichomonas foetus, obtained from cultures transplanted every other day to make them lively, was effected in a ratio of 3.5% of the volume of medium used.
as §4

[4] = tested on: Trichophyton Mentagrophytes; test: Topical activity upon dermatophytis from Trichophyton in cavies (Table 6); type: in vivo, Albino cavies; details: for evaluation of seriousness of infection (A.D.I.): average index
Procedure: Albino cavies of 250-300 g are infected, after depilation and scarification of a circular area of dorsal skin upon which there are supplied 0.1 ml of a suspension of microconidia of Trichophyton Mentagrophytes from the Pasteur Institute collection, obtained from a culture of 15 days upon Saboureaud agar. 24 Hours after infection topical treatment is started and is continued for two weeks (once per day).
The compounds to be tested are dissolved or suspended at the desired concentration, in a water-alcohol mixture (75/25 v/v) containing 0.75% by weight of carboxymethyl-cellulose (CMC). […] Each single application is carried out using 0.25 ml of the suspension or solution obtained as described above.
Fourteen days after infection the lesions are assessed. Assessment is carried out by attributing index numbers depending upon the seriousness of the lesions formed, as follows:
The substances under examination were tested at concentrations of 5 and 2.5% by weight.

[5] = tested on: Escherichia Coli SKF 12140; test: Speed of sterilising action, Escherichia Coli (Table 3); type: cell-based
Procedure: (§5) The strains, inoculants, culture broths and experimental methods are as already seen for calculating the M.I.C. in vitro. The antimicrobic substances were tested at concentrations of 0.1, 0.25, 0.5 and 1 g/l, the contact times taken into consideration are 0, 1, 2.5, 5, 7.5, 10, 15, 30 and 60 minutes.
(§6) The samples which at the 7th day of incubation still had no growth of micro-organisms which could be observed macroscopically and/or microscopically were considered sterile.
(§7) The results are recorded in Table 3 in terms of sterilization time expressed in minutes.

Esch. Coli. SKF 12140 = test: M.I.C. in vitro, gram- Esch. Coli (Table 1); type: cell-based, Escherichia Coli; details: Escherichia coli, read-out: M.I.C.
Procedure: as §1, §2, §3

[6] = tested on: all the micro-organisms tested; test: Speed of sterilising action, all micro-organisms; type: cell-based; details: even with a very low concentration
Procedure: as §5, §6, §7

Proteus Vulc. ATCC 881 = test: M.I.C. in vitro, gram- Proteus Vulc. (Table 1); type: cell-based; details: read-out: M.I.C.
Procedure: as §1, §2, §3

Candida Albic. SKF 2270 = test: MIC yeasts, Candida albicans (Table 2); type: cell-based; details: for MIC: Sabourand broth
Procedure: as §1, §2
Inoculation with Candida albicans or Candida pseudotropicalis was made by diluting cultures grown for 24 h at 30° C. (cellular density inoculated 10^3 /ml).
as §4

Candida albicans = test: Activity upon vaginal candidiasis in mice (Table 7); type: in vivo, female Swiss mice (Charles River CD1)
Procedure: The treatment groups consist each of 8 female Swiss mice (Charles River CD1) of average weight 20 g. The animals are infected with 0.025 ml of a 24 hour culture of Candida albicans, equal to 10^6 cellules.
0.025 ml of a suspension in lanoline of the compound to be tested, at the desired concentration, are applied locally twice a day for a week, the first treatment being started five hours after infection.
The control group is treated with the lanoline alone in the same way. On the eighth day vaginal washings are carried out with 0.025 ml of sterile physiological solution, and the liquid is sown in Petri dishes containing Bacto Biggy Agon Difco as a selective growing medium for the Candida.
After 48 hours of incubation of the dishes at 30° C. a count is taken of the colonies which have grown. Assessment of the activity is quantized using the indices listed here below:
The results are expressed as percentages of the average index of seriousness of the infection A.D.I. (Average Degree of Infection) in the animals treated with respect to the animals in the control group.
The substances under examination were tested at concentrations of 5 and 3% by weight.

CCCCCCCCCC[N+](C)(C)CCOC(=O)C12CC3CC(CC(C3)C1)C2 (single isomer, unassigned) [Example 1, n-Decyl-dimethyl-(1-adamantane-carboxy)-ethyl-ammonium bromide]
MIC (Pseudom.Aer. ATCC 1014; Pseudomonas aeruginosa, ATCC1014, +10% serum, read-out: M.I.C.): 50 µg/mL | M.I.C. (Pseudom.Aer. ATCC 1014; without serum): 20 µg/mL | antibacterial activity (in words) [1]: powerful antibacterial activity at low concentrations | MIC (Klens. Pneum. ISM; +10% serum, read-out: M.I.C.): 50 µg/mL | M.I.C. (Klens. Pneum. ISM; without serum): 5 µg/mL | MIC ([2]; Microsporum canis, ATCC11621, +10% serum, read-out: MIC): 10 µg/mL | MIC ([2]; without serum): 0.1 µg/mL | M.I.C. ([3]; +10% serum): 0.1 µg/mL | MIC ([3]; without serum, read-out: M.I.C.): < 0.1 µg/mL | M.I.C. (Staph.Aureus Tour; +10% serum): 2 µg/mL | MIC (Staph.Aureus Tour; Staphylococcus aureus, without serum, read-out: M.I.C.): < 0.1 µg/mL | MIC (Trich. Foetus ISM 66/23): 2 µg/mL | A.D.I. (% of control group) ([4]; 2.5% by weight): 31.09% | healing % (100-A.D.I. %) ([4]; 2.5% by weight): 68.91% | evaluation of seriousness of infection (A.D.I.) ([4]; 2.5% by weight): 0.83 | A.D.I. (% of control group) ([4]; 5% by weight): 12.36% | healing % (100-A.D.I. %) ([4]; 5% by weight): 87.64% and ~90% | evaluation of seriousness of infection (A.D.I.) ([4]; 5% by weight): 0.33 | in vivo activity against Trichophyton Mentagrophytes (in words) ([4]; in vivo): excellent "in vivo" activity against Trichophyton Mentagrophytes | sterilization time ([5]; 0.1 g/l): 60 min | sterilization time ([5]; 0.25 g/l): 60 min | sterilization time ([5]; 0.5 g/l): 15 min | sterilization time ([5]; 1 g/l): 5 min | MIC (Esch. Coli. SKF 12140; +10% serum): 50 µg/mL | MIC (Esch. Coli. SKF 12140; without serum): 5 µg/mL | sterilising action (in words) [6]: swift sterilising action on all the micro-organisms tested | MIC (Proteus Vulc. ATCC 881; +10% serum): 50 µg/mL | MIC (Proteus Vulc. ATCC 881; without serum): 10 µg/mL | MIC (Candida Albic. SKF 2270; +10% serum): 10 µg/mL | activity on Candida albicans, times greater than that of cetyl pyridine chloride (Candida Albic. SKF 2270; in the absence of serum): about 25 times | activity on Candida albicans, times higher than that of cetyl pyridine chloride (Candida Albic. SKF 2270; in the presence of 10% of horse serum): 5-10 times | MIC (Candida Albic. SKF 2270; without serum): 0.2 µg/mL | % of healing (100-A.D.I. %) (Candida albicans; 3% by weight): 63.03% | A.D.I. (compared with controls) (Candida albicans; 3% by weight): 36.97% | average proliferation index (A.D.I) (Candida albicans; 3% by weight): 0.88 | % of healing (100-A.D.I. %) (Candida albicans; 5% by weight): 84.03% | A.D.I. (compared with controls) (Candida albicans; 5% by weight): 15.97% | average proliferation index (A.D.I) (Candida albicans; 5% by weight): 0.38 | no. of animals surviving (Candida albicans; mouse, in vivo): 8 | tolerance by vaginal mucous membrane (Candida albicans; mouse, in vivo): perfectly tolerated by very delicate tissues | topical in vivo activity against Candida albicans (in words) (Candida albicans; mouse, in vivo): excellent topical activity "in vivo" even against Candida albicans
